Test: Antagonist activity at ER in human MCF7 cells assessed as inhibition of 17beta-estradiol-induced cell proliferation

IC50: 900 pM
Compound: Oc1ccc2c(c1)C(c1ccc(OCCN3CCCCC3)cc1)c1c(sc3cc(O)ccc13)C2 (stereo unspecified)
